This passage reports IC50 and Ki results from BindingDB's records for doi:10.1002/cbic.201100587 (2012).

Chain of Glutamine--fructose-6-phosphate transaminase (isomerizing) (A6ZZL3 whole entry): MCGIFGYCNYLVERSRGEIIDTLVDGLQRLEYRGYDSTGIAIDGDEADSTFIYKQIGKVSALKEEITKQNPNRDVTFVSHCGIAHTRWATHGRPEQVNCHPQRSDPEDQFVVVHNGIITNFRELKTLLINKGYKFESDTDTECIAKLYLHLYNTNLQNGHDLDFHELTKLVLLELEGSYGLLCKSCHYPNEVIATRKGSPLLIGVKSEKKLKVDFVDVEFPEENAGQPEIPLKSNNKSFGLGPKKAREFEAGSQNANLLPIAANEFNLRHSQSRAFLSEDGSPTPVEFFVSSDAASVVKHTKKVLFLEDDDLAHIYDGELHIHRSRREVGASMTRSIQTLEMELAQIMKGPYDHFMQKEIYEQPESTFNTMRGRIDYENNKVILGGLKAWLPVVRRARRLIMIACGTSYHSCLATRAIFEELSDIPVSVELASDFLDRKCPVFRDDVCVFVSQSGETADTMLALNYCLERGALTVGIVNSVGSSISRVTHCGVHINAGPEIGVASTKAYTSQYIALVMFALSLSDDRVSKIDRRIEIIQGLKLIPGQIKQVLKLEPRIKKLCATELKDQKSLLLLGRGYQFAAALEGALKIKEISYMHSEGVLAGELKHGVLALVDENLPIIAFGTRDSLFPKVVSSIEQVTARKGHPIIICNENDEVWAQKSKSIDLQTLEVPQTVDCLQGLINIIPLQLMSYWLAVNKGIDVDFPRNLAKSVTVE

This assay concerns the target Glutamine--fructose-6-phosphate transaminase (isomerizing) (Saccharomyces cerevisiae (strain YJM789), UniProt A6ZZL3). Kind of assay: Inhibition Assay. From the text:
The inhibition assay was followed under standard conditions with saturating concentrations of both substrates to determine the IC50 values.
Compound `N[C@@H](CNC(=O)[C@@H]1O[C@H]1C(=O)c1ccccc1)C(=O)O` [N3-Oxoacyl derivative, 1] registered an IC50 of 0.66 mM and a Ki of 0.45 mM.
For `CC(=O)[C@@H]1O[C@H]1C(=O)NC[C@H](N)C(=O)O` [N3-Oxoacyl derivative, 2] the same measures were 7.35 mM and 19.4 mM.
The matching figures for `N[C@@H](CNC(=O)/C=C/C(=O)c1ccccc1)C(=O)O` [N3-Oxoacyl derivative, 3]: 0.27 mM and 0.0565 mM.
The matching figures for `CC(=O)C=CC(=O)NC[C@H](N)C(=O)O` [N3-Oxoacyl derivative, 4]: 5.6 mM and 15.2 mM.

In general, IC50 refers to the midpoint of a concentration-inhibition curve. High values mean weaker potency in that assay, low ones greater potency in that assay. One may read the Ki as a measure of affinity in units of concentration, obtained from inhibition or displacement. Higher therefore signals lower affinity.
